Measured values taken from article PMC6916168, “Multifunctional Glycoconjugates for Recruiting Natural Antibodies against Cancer Cells” (Chemistry (Weinheim an Der Bergstrasse, Germany), 2019).

Target: human anti-Rha IgM
Experiment: Competitive ELISA: inhibition of human anti-Rha IgM binding to PAA-Rha coated wells
Details: indirect competitive ELISA; human serum 20 %; PAA-Rha coating 5 μg mL^−1; 1 h at 37 °C; Alexa-Fluor488 goat anti-human IgM (1:400), fluorescence Ex 488/Em 530 nm; average of three independent experiments; read-out: IC50, inhibition of binding of human anti-Rha IgM to Rha coated wells (monovalent control)
Protocol: We next performed enzyme‐linked immunosorbent assay (ELISA)‐type studies to evaluate the ability of glycoconjugates 3 and 6 to bind natural Abs. Microtiter plates were first coated with a commercial Rha‐functionalized poly[N‐(2‐hydroxyethyl)acrylamide] polymer (PAA‐Rha) and incubated with human serum, a source of anti‐Rha antibodies, then fluorescent goat anti‐human IgM and IgG. […] This observation is in good agreement with previous studies showing strong ratio variations of circulating antibodies in human sera.15, 16 A competitive assay was next performed with glycoconjugates 3 and 6 as inhibitors and Rha as the monovalent control (Figure 1). […]
The ability of the ABMs to recruit anti‐Rha antibodies present in human serum (HS) was evaluated by an indirect competitive ELISA binding study. […] The fluorescence has been measured by using an Omega BMG LABTECH plate reader (Ex: 488 nm/ Em: 530 nm). The percentage of binding inhibition of the human anti‐Rha IgM antibody to the rhamnose‐coated microplate was calculated by using the formula: inhibition (%)=((F max−F)/F max)×100. F max corresponds to the mean value of the higher fluorescence limit reached in the dilution series of each rhamnose conjugate whereas F is the fluorescence red for each concentration of the compound tested. The fluorescence values used in this formula were an average of triplicate experiments. […]

IC50: 1.2 mM
Compound: C[C@H](O)[C@H](O)[C@@H](O)[C@@H](O)C=O [Rha, L‐rhamnose]
